Test results taken from ChEMBL document CHEMBL4706508, “Discovery of first-in-class multi-target adenosine A receptor antagonists-carbonic anhydrase IX and XII inhibitors. 8-Amino-6-aryl-2-phenyl-1,2,4-triazolo [4,3-a]pyrazin-3-one derivatives as new potential antitumor agents” (Eur J Med Chem, 2020).
pIC50, pKi: −log10 of the molar value.

Key:
Adenosine receptor A3 = biological target: T1, Adenosine receptor A3 (Homo sapiens, UniProt P0DMS8); test: Displacement of [3H]-HEMADO from human A3 receptor stably expressed in CHO cell membranes by radioligand competitive binding assay; set-up: species or system Cell membrane
T1 sequence (P0DMS8 whole entry): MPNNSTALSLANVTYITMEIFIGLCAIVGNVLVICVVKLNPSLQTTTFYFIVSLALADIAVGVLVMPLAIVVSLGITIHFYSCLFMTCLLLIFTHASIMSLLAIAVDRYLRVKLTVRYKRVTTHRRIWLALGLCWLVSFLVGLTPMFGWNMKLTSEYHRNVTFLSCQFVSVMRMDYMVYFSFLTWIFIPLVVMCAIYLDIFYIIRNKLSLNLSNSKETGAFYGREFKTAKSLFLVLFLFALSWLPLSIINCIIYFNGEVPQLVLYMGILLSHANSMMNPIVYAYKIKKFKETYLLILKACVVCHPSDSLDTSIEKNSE

Carbonic anhydrase 1 = Carbonic anhydrase 1 (Homo sapiens, UniProt P00915); test: Inhibition of human CA1 incubated for 15 mins by stopped- flow CO2 hydrase assay method
Carbonic anhydrase 1, sequence (P00915 whole entry): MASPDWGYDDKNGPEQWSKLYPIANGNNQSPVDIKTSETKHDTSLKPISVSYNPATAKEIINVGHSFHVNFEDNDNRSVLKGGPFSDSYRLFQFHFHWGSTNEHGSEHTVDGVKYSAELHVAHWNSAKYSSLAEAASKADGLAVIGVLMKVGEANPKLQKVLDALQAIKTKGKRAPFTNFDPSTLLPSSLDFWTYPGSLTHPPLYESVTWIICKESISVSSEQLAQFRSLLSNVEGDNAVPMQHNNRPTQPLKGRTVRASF

Adenosine receptor A2a = Adenosine receptor A2a (Homo sapiens, UniProt P29274); test: Displacement of [3H]-NECA from human A2A receptor stably expressed in CHO cell membranes by radioligand competitive binding assay; set-up: species or system Cell membrane
Adenosine receptor A2a, sequence (P29274 whole entry): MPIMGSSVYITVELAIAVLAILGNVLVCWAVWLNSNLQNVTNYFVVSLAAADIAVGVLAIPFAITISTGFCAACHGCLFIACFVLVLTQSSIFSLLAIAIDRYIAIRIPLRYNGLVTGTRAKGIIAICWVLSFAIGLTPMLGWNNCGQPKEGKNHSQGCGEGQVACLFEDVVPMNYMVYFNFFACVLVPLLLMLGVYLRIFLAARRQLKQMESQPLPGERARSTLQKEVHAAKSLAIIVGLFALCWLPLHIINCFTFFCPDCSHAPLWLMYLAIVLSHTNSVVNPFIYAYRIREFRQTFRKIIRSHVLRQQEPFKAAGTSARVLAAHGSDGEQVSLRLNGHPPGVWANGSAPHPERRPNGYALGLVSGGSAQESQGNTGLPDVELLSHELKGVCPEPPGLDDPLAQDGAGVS

Adenosine receptor A1 = biological target: T2, Adenosine receptor A1 (Homo sapiens, UniProt P30542); test: Displacement of [3H]-CCPA from human A1 receptor stably expressed in CHO cell membranes by radioligand competitive binding assay; set-up: species or system Cell membrane
T2 sequence (P30542 whole entry): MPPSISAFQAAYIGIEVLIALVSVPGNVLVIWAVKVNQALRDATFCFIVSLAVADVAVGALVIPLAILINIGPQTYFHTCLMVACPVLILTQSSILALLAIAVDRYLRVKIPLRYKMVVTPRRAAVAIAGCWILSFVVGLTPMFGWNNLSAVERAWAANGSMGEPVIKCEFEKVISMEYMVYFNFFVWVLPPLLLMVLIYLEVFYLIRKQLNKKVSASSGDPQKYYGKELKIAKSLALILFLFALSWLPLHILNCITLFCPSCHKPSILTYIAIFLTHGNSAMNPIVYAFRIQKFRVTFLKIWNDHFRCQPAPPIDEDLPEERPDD

Adenosine receptor A2b = biological target: T3, Adenosine receptor A2b (Homo sapiens, UniProt P29275); test: Antagonist activity at human A2B receptor expressed in CHO cell membrane assessed as reduction in NECA-[…] level by GloSensor CAMP assay; assay type: cell membranes
T3 sequence (P29275 whole entry): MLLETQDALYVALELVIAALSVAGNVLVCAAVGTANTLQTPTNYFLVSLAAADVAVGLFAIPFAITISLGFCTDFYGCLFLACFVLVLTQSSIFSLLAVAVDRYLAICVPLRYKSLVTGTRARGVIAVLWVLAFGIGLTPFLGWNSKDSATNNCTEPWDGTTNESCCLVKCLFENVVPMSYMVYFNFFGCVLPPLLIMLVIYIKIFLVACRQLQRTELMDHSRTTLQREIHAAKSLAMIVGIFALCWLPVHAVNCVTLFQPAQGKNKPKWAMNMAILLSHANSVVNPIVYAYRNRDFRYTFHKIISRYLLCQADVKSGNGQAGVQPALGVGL

Carbonic anhydrase 12 = Carbonic anhydrase 12 (Homo sapiens, UniProt O43570); test: Inhibition of human CA12 incubated for 15 mins by stopped- flow CO2 hydrase assay method
Carbonic anhydrase 12, sequence (O43570 whole entry): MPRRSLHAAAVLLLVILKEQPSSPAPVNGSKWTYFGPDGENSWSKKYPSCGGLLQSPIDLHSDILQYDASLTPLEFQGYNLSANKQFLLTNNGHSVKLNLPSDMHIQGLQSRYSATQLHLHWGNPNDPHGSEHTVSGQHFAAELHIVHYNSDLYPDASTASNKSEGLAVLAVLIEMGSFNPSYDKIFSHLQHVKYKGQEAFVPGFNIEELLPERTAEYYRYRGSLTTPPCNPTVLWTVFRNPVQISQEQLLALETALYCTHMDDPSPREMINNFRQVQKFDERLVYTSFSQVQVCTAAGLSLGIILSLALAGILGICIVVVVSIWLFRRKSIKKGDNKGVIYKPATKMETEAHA

Carbonic anhydrase 9 = Carbonic anhydrase 9 (Homo sapiens, UniProt Q16790); test: Inhibition of human CA9 incubated for 15 mins by stopped- flow CO2 hydrase assay method
Carbonic anhydrase 2 = Carbonic anhydrase 2 (Homo sapiens, UniProt P00918); test: Inhibition of human CA2 incubated for 15 mins by stopped- flow CO2 hydrase assay method

| Structure (SMILES) | pKi (Adenosine receptor A3) | pKi (Carbonic anhydrase 1) | pKi (Adenosine receptor A2a) | pKi (Adenosine receptor A1) | pIC50 (Adenosine receptor A2b) | pKi (Carbonic anhydrase 12) | pKi (Carbonic anhydrase 9) | pKi (Carbonic anhydrase 2) |
| --- | --- | --- | --- | --- | --- | --- | --- | --- |
| Nc1nc(-c2ccc(NC(=O)CCNCc3ccc(S(N)(=O)=O)cc3)cc2)cn2c(=O)n(-c3ccccc3)nc12 | < 4.52 | 5.05 | 7.02 | 6.08 | < 4.52 | 7.38 | 6.50 | 5.17 |
| Nc1nc(-c2ccc(NC(=O)CCNC(=O)c3ccc(S(N)(=O)=O)cc3)cc2)cn2c(=O)n(-c3ccccc3)nc12 | < 4.52 | 7.29 |  | 5.97 | < 4.52 | 7.57 | 8.30 | 8.07 |
| Nc1nc(-c2ccc(NC(=O)c3ccc(S(N)(=O)=O)cc3)cc2)cn2c(=O)n(-c3ccccc3)nc12 | < 4.52 | 5.08 |  | 5.38 | < 4.52 | 8.22 | 6.33 | 7.34 |
| Nc1nc(-c2ccc(NCc3ccc(S(N)(=O)=O)cc3)cc2)cn2c(=O)n(-c3ccccc3)nc12 | < 4.52 | 6.24 | 7.55 | 7.06 | < 4.52 | 6.20 | 5.22 | 6.05 |
| Nc1nc(-c2ccc(NC(=O)CCC(=O)O)cc2)cn2c(=O)n(-c3ccccc3)nc12 | 5.16 | < 4.00 | 6.24 | 5.64 | < 4.52 | < 4.00 | < 4.00 | < 4.00 |
| CN(C)c1nc(-c2ccc(S(N)(=O)=O)cc2)cn2c(=O)n(-c3ccccc3)nc12 | 4.71 | 5.68 | 5.41 | 6.36 | < 4.52 | 6.45 | 5.17 | 6.33 |
| Nc1nc(-c2ccc(NC(=O)c3ccc(C(=O)O)cc3)cc2)cn2c(=O)n(-c3ccccc3)nc12 | < 4.52 | < 4.00 | 7.09 | 5.63 | < 4.52 | < 4.00 | < 4.00 | < 4.00 |
| Nc1nc(-c2ccc(S(N)(=O)=O)cc2)cn2c(=O)n(-c3ccccc3)nc12 | 4.83 | 5.10 | 6.07 | 6.69 | < 4.52 | 6.22 | 5.05 | 6.15 |
| Nc1nc(-c2ccccc2O)cn2c(=O)n(-c3ccccc3)nc12 |  | < 4.00 |  |  | < 4.52 | < 4.00 | < 4.00 | 4.72 |
| Nc1nc(-c2cccc(O)c2)cn2c(=O)n(-c3ccccc3)nc12 |  | < 4.00 |  |  | < 4.52 | < 4.00 | < 4.00 | 4.03 |
| Nc1nc(-c2ccc(NC(=O)c3ccc(O)c(O)c3)cc2)cn2c(=O)n(-c3ccccc3)nc12 | 5.90 | < 4.00 | 8.05 | 6.26 | < 4.52 | < 4.00 | 4.35 | 4.50 |
| Nc1nc(-c2ccc(OCCNC(=O)c3ccc(S(N)(=O)=O)cc3)cc2)cn2c(=O)n(-c3ccccc3)nc12 | 5.18 | 6.03 | 8.17 | 6.38 | < 4.52 | 6.28 | 5.23 | 6.74 |
| Nc1nc(-c2ccc(O)cc2)cn2c(=O)n(-c3ccccc3)nc12 |  | < 4.00 |  |  | < 4.52 | < 4.00 | < 4.00 | < 4.00 |
| Nc1nc(-c2ccc(NCC(=O)c3ccc(S(N)(=O)=O)cc3)cc2)cn2c(=O)n(-c3ccccc3)nc12 | 5.17 | 6.23 | 7.59 | 6.88 | < 4.52 | 7.59 | 5.02 | 6.61 |
| COc1ccc(C(=O)Nc2ccc(-c3cn4c(=O)n(-c5ccccc5)nc4c(N)n3)cc2)cc1 | 6.55 | < 4.00 | 9.15 | 6.38 | < 4.52 | < 4.00 | < 4.00 | < 4.00 |
| Nc1nc(-c2ccc(NC(=O)CCNC(=O)c3cccc(S(N)(=O)=O)c3)cc2)cn2c(=O)n(-c3ccccc3)nc12 | < 4.52 | 5.14 | 8.04 | 6.38 | < 4.52 | 6.08 | 5.16 | 6.47 |
| COc1ccc(C(=O)Nc2ccc(-c3cn4c(=O)n(-c5ccccc5)nc4c(N)n3)cc2)cc1OC | < 4.52 | < 4.00 | 7.69 | 7.01 | < 4.52 | < 4.00 | < 4.00 | < 4.00 |
| CCOC(=O)CNc1ccc(-c2cn3c(=O)n(-c4ccccc4)nc3c(N)n2)cc1 | < 4.52 | < 4.00 | 5.20 | 6.11 | < 4.52 | < 4.00 | < 4.00 | < 4.00 |
| Nc1nc(-c2ccc(OCCNCCc3ccc(S(N)(=O)=O)cc3)cc2)cn2c(=O)n(-c3ccccc3)nc12 | 5.15 | 6.01 | 7.06 | 6.55 | < 4.52 | 6.10 | 5.02 | 6.03 |
| Nc1nc(-c2ccc(NC(=O)CCNCCc3ccc(S(N)(=O)=O)cc3)cc2)cn2c(=O)n(-c3ccccc3)nc12 | 5.23 | 5.06 | 7.97 | 5.99 | < 4.52 | 9.58 | 6.96 | 6.28 |
| Nc1nc(-c2ccc(NC(=O)c3ccc(O)cc3)cc2)cn2c(=O)n(-c3ccccc3)nc12 | 5.97 | < 4.00 | 7.39 | 6.71 | < 4.52 | 5.36 | < 4.00 | 4.33 |
| CCOC(=O)c1ccc(C(=O)Nc2ccc(-c3cn4c(=O)n(-c5ccccc5)nc4c(N)n3)cc2)cc1 | < 4.52 | < 4.00 | 5.87 | 5.13 | < 4.52 | < 4.00 | < 4.00 | < 4.00 |
| Nc1nc(-c2ccc(NC(=O)c3cccc(S(N)(=O)=O)c3)cc2)cn2c(=O)n(-c3ccccc3)nc12 | < 4.52 | 5.64 | 7.87 | 5.92 | < 4.52 | 6.52 | 6.09 | 6.44 |
| Nc1nc(-c2ccc(NC(=O)c3ccc(C(=O)NO)cc3)cc2)cn2c(=O)n(-c3ccccc3)nc12 | 6.26 | < 4.00 | 7.44 | 6.40 | < 4.52 | < 4.00 | < 4.00 | 4.20 |
